Key:
kochia = assay: Test C postemergence; assay type: in vivo, Kochia scoparia
Procedure, shortened: (§1)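 Seeds are planted in blended loam soil and sand and treated preemergence, while seedlings in a peat moss/vermiculite medium receive postemergence sprays at 2 to 18 cm height. All plants stay in the greenhouse for 13 to 15 days before visual comparison with controls on a 0–100 scale.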

large (Lg) crabgrass [1] = assay: Test A preemergence; assay type: in vivo, Digitaria sanguinalis
Procedure, shortened: (§2)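 Injury scores run from 0, no effect, to 100, complete control, judged by eye against untreated plants roughly 10 days after treatment. Chemicals carried a surfactant in a non-phytotoxic solvent and went onto loam–sand soil preemergence or onto one- to two-leaf seedlings postemergence.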

yellow nutsedge = assay: Test C postemergence; assay type: in vivo, Cyperus esculentus
Procedure, shortened: as §1

corn = assay: Test A postemergence; assay type: in vivo, Zea mays
Procedure, shortened: as §2

wheat = assay: Test A preemergence; assay type: in vivo, Triticum aestivum
Procedure, shortened: as §2

morningglory [2] = assay: Test C postemergence; assay type: in vivo, Ipomoea coccinea
Procedure, shortened: as §1

velvetleaf = assay: Test A postemergence; assay type: in vivo, Abutilon theophrasti
Procedure, shortened: as §2

Italian ryegrass = assay: Test C postemergence; assay type: in vivo, Lolium multiflorum
Procedure, shortened: as §1

rice = assay: Test B flooded paddy test; assay type: in vivo, Oryza sativa; conditions: Flood, 250 g ai/ha, 0 to 100 scale where 0 is no effect and 100 is complete control
Procedure, shortened: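 Seedlings are raised to two leaves, flooded to a depth of 3 cm and dosed by adding the compound to the floodwater. Water level is kept constant, and plants are scored visually versus controls 13–15 days later (0 = no effect, 100 = complete control).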

morningglory [3] = assay: Test A preemergence; assay type: in vivo, Ipomoea spp.
Procedure, shortened: as §2

wild oat = assay: Test C postemergence; assay type: in vivo, Avena fatua
Procedure, shortened: as §1

giant foxtail [4] = assay: Test A preemergence; assay type: in vivo, Setaria faberii
Procedure, shortened: as §2

pigweed = assay: Test C postemergence; assay type: in vivo, Amaranthus retroflexus
Procedure, shortened: as §1

large (Lg) crabgrass [5] = assay: Test A postemergence; assay type: in vivo, Digitaria sanguinalis
Procedure, shortened: as §2

giant foxtail [6] = assay: Test A postemergence; assay type: in vivo, Setaria faberii
Procedure, shortened: as §2

[7] = 16 g ai/ha, postemergence, 0 is no effect, 100 is complete control
[8] = 31 g ai/ha, postemergence, visual rating, scale 0 to 100 (0 no effect, 100 complete control), 13 to 15 days
[9] = 125 g ai/ha, postemergence, visual rating, scale 0 to 100 (0 no effect, 100 complete control)
[10] = Postemergence, 62 g ai/ha, scale 0 to 100 (0 no effect, 100 complete control), 13 to 15 days
[11] = 1000 g ai/ha, 0 to 100 scale, 0 no effect, 100 complete control, approx. 10 days
[12] = 1000 g ai/ha, 0 to 100 scale, 0 no effect, 100 complete control
[13] = 125 g ai/ha, 0 to 100 scale where 0 is no effect and 100 is complete control

Clc1cnc(Oc2ccccc2-n2cc(Br)nn2)nc1 [Compound 223]
Plant response rating (0 to 100), Kochia (kochia; [7]): 70 | Kochia plant response rating (kochia; [8]): 85 | Plant response rating, Kochia (kochia; [9]): 90 | Plant response rating, Kochia (kochia; [10]): 80 | Crabgrass, Large plant response rating (large (Lg) crabgrass [1]; [11]): 100 | Plant response rating (0 to 100), Nutsedge, Yellow (yellow nutsedge; [7]): 5 | Nutsedge, Yellow plant response rating (yellow nutsedge; [8]): 5 | Plant response rating, Nutsedge, Yellow (yellow nutsedge; [9]): 5 | Plant response rating, Nutsedge, Yellow (yellow nutsedge; [10]): 5 | Plant response rating, Corn (corn; [12]): 60 | Wheat plant response rating (wheat; [11]): 80 | Plant response rating (0 to 100), Morningglory (morningglory [2]; [7]): 5 | Morningglory plant response rating (morningglory [2]; [8]): 45 | Plant response rating, Morningglory (morningglory [2]; [9]): 80 | Plant response rating, Morningglory (morningglory [2]; [10]): 70 | Plant response rating, Velvetleaf (velvetleaf; [12]): 100 | Plant response rating (0 to 100), Ryegrass, Italian (Italian ryegrass; [7]): 0 | Ryegrass, Italian plant response rating (Italian ryegrass; [8]): 0 | Plant response rating, Ryegrass, Italian (Italian ryegrass; [9]): 5 | Plant response rating, Ryegrass, Italian (Italian ryegrass; [10]): 0 | Plant response rating, Rice (rice): 50 | Morningglory plant response rating (morningglory [3]; [11]): 100 | Plant response rating (0 to 100), Oat, Wild (wild oat; [7]): 0 | Oat, Wild plant response rating (wild oat; [8]): 0 | Plant response rating, Oat, Wild (wild oat; [9]): 5 | Plant response rating, Oat, Wild (wild oat; [10]): 0 | Foxtail, Giant plant response rating (giant foxtail [4]; [11]): 100 | Plant response rating (0 to 100), Pigweed (pigweed; [7]): 70 | Pigweed plant response rating (pigweed; [8]): 70 | Plant response rating, Pigweed (pigweed; [9]): 90 | Plant response rating, Pigweed (pigweed; [10]): 80 | Plant response rating, Crabgrass, Large (large (Lg) crabgrass [5]; [12]): 100 | Plant response rating, Foxtail, Giant (giant foxtail [6]; [12]): 90

FC(F)c1cnn(-c2ccccc2Oc2ncc(Cl)cn2)c1 [Compound 80, 5-chloro-2-[2-[4-(difluoromethyl)-1H-pyrazol-1-yl]phenoxy]pyrimidine]
pest or weed control at 16 g/ha (kochia; Bassia scoparia, post-emergence, 16 g ai/ha, postemergence, visual rating, scale 0 to 100 (0 no effect, 100 complete control), 13 to 15 days, read-out: Kochia plant response rating): 60% | pest or weed control at 125 g/ha (kochia; Bassia scoparia, post-emergence, 125 g ai/ha, postemergence, read-out: Plant response rating (0 to 100), Kochia): 95% | pest or weed control at 31 g/ha (kochia; Bassia scoparia, post-emergence, Postemergence, 31 g ai/ha, scale 0 to 100 (0 no effect, 100 complete control), 13 to 15 days, read-out: Plant response rating, Kochia): 90% | pest or weed control at 62 g/ha (kochia; Bassia scoparia, post-emergence, Postemergence, 62 g ai/ha, scale 0 to 100 (0 no effect, 100 complete control), read-out: Plant response rating, Kochia): 95% | pest or weed control at 125 g/ha (large (Lg) crabgrass [1]; Digitaria sanguinalis, pre-emergence, 240 h, 125 g ai/ha, 0 to 100 scale where 0 is no effect and 100 is complete control, read-out: Plant response rating, Crabgrass, Large): 100% | pest or weed control at 500 g/ha (large (Lg) crabgrass [1]; Digitaria sanguinalis, pre-emergence, 240 h, 500 g ai/ha, 0 to 100 scale, 0 no effect, 100 complete control, approx. 10 days, read-out: Crabgrass, Large plant response rating): 100% | pest or weed control at 125 g/ha (yellow nutsedge; Cyperus, post-emergence, 125 g ai/ha, postemergence, read-out: Plant response rating (0 to 100), Nutsedge, Yellow): 5% | pest or weed control at 31 g/ha (yellow nutsedge; Cyperus, post-emergence, Postemergence, 31 g ai/ha, scale 0 to 100 (0 no effect, 100 complete control), 13 to 15 days, read-out: Plant response rating, Nutsedge, Yellow): 5% | pest or weed control at 62 g/ha (yellow nutsedge; Cyperus, post-emergence, Postemergence, 62 g ai/ha, scale 0 to 100 (0 no effect, 100 complete control), read-out: Plant response rating, Nutsedge, Yellow): 5% | Corn plant response rating (crop injury, 0 = no effect, 100 = complete kill) at 125 g/ha (corn; Zea mays, post-emergence, 240 h, 125 g ai/ha, 0 to 100 scale where 0 is no effect and 100 is complete control): 70% | plant injury at 500 g/ha (corn; Zea mays, post-emergence, 240 h, 500 g ai/ha, 0 to 100 scale, 0 no effect, 100 complete control, read-out: Plant response rating Corn): 10% | Plant response rating, Wheat (wheat; [13]): 10 | plant injury at 500 g/ha (wheat; Triticum aestivum, pre-emergence, 240 h, 500 g ai/ha, 0 to 100 scale, 0 no effect, 100 complete control, approx. 10 days, read-out: Wheat plant response rating): 50% | pest or weed control at 125 g/ha (morningglory [2]; Ipomoea, post-emergence, 125 g ai/ha, postemergence, read-out: Plant response rating (0 to 100), Morningglory): 60% | pest or weed control at 31 g/ha (morningglory [2]; Ipomoea, post-emergence, Postemergence, 31 g ai/ha, scale 0 to 100 (0 no effect, 100 complete control), 13 to 15 days, read-out: Plant response rating, Morningglory): 10% | pest or weed control at 62 g/ha (morningglory [2]; Ipomoea, post-emergence, Postemergence, 62 g ai/ha, scale 0 to 100 (0 no effect, 100 complete control), read-out: Plant response rating, Morningglory): 60% | pest or weed control at 125 g/ha (velvetleaf; Abutilon theophrasti, post-emergence, 240 h, 125 g ai/ha, 0 to 100 scale where 0 is no effect and 100 is complete control, read-out: Plant response rating, Velvetleaf): 100% | pest or weed control at 500 g/ha (velvetleaf; Abutilon theophrasti, post-emergence, 240 h, 500 g ai/ha, 0 to 100 scale where 0 is no effect and 100 is complete control, read-out: Plant response rating, Velvetleaf): 100% | pest or weed control at 125 g/ha (Italian ryegrass; Lolium multiflorum, post-emergence, 125 g ai/ha, postemergence, read-out: Plant response rating (0 to 100), Ryegrass, Italian): 5% | pest or weed control at 31 g/ha (Italian ryegrass; Lolium multiflorum, post-emergence, Postemergence, 31 g ai/ha, scale 0 to 100 (0 no effect, 100 complete control), 13 to 15 days, read-out: Plant response rating, Ryegrass, Italian): 0% | pest or weed control at 62 g/ha (Italian ryegrass; Lolium multiflorum, post-emergence, Postemergence, 62 g ai/ha, scale 0 to 100 (0 no effect, 100 complete control), read-out: Plant response rating, Ryegrass, Italian): 20% | plant injury at 250 g/ha (rice; Oryza sativa, read-out: Plant response rating, Rice): 0% | Plant response rating, Morningglory (morningglory [3]; [13]): 30 | pest or weed control at 500 g/ha (morningglory [3]; Ipomoea, pre-emergence, 240 h, 500 g ai/ha, 0 to 100 scale, 0 no effect, 100 complete control, approx. 10 days, read-out: Morningglory plant response rating): 80% | pest or weed control at 125 g/ha (wild oat; Avena fatua, post-emergence, 125 g ai/ha, postemergence, read-out: Plant response rating (0 to 100), Oat, Wild): 10% | pest or weed control at 31 g/ha (wild oat; Avena fatua, post-emergence, Postemergence, 31 g ai/ha, scale 0 to 100 (0 no effect, 100 complete control), 13 to 15 days, read-out: Plant response rating, Oat, Wild): 0% | pest or weed control at 62 g/ha (wild oat; Avena fatua, post-emergence, Postemergence, 62 g ai/ha, scale 0 to 100 (0 no effect, 100 complete control), read-out: Plant response rating, Oat, Wild): 5% | pest or weed control at 125 g/ha (giant foxtail [4]; Setaria faberi, pre-emergence, 240 h, 125 g ai/ha, 0 to 100 scale where 0 is no effect and 100 is complete control, read-out: Plant response rating, Foxtail, Giant): 90% | pest or weed control at 500 g/ha (giant foxtail [4]; Setaria faberi, pre-emergence, 240 h, 500 g ai/ha, 0 to 100 scale, 0 no effect, 100 complete control, approx. 10 days, read-out: Foxtail, Giant plant response rating): 100% | pest or weed control at 125 g/ha (pigweed; Amaranthus retroflexus, post-emergence, 125 g ai/ha, postemergence, read-out: Plant response rating (0 to 100), Pigweed): 75% | pest or weed control at 31 g/ha (pigweed; Amaranthus retroflexus, post-emergence, Postemergence, 31 g ai/ha, scale 0 to 100 (0 no effect, 100 complete control), 13 to 15 days, read-out: Plant response rating, Pigweed): 60% | pest or weed control at 62 g/ha (pigweed; Amaranthus retroflexus, post-emergence, Postemergence, 62 g ai/ha, scale 0 to 100 (0 no effect, 100 complete control), read-out: Plant response rating, Pigweed): 65% | pest or weed control at 125 g/ha (large (Lg) crabgrass [5]; Digitaria sanguinalis, post-emergence, 240 h, 125 g ai/ha, 0 to 100 scale where 0 is no effect and 100 is complete control, read-out: Plant response rating, Crabgrass, Large): 80% | pest or weed control at 500 g/ha (large (Lg) crabgrass [5]; Digitaria sanguinalis, post-emergence, 240 h, 500 g ai/ha, 0 to 100 scale, 0 no effect, 100 complete control, read-out: Plant response rating Crabgrass, Large): 100% | pest or weed control at 125 g/ha (giant foxtail [6]; Setaria faberi, post-emergence, 240 h, 125 g ai/ha, 0 to 100 scale where 0 is no effect and 100 is complete control, read-out: Plant response rating, Foxtail, Giant): 80% | pest or weed control at 500 g/ha (giant foxtail [6]; Setaria faberi, post-emergence, 240 h, 500 g ai/ha, 0 to 100 scale where 0 is no effect and 100 is complete control, read-out: Plant response rating, Foxtail, Giant): 90%
